Assay results published in BigSolDB 2.1.

Cc1ccc(C(=O)O)cc1
solubility (mole fraction) (in acetic acid, 283.15 K): 0.043 | solubility (mole fraction) (in acetic acid, 288.15 K): 0.048 | solubility (mole fraction) (in acetic acid, 293.15 K): 0.053 | solubility (mole fraction) (in acetic acid, 298.15 K): 0.059 | solubility (mole fraction) (in acetic acid, 303.15 K): 0.064 | solubility (mole fraction) (in acetic acid, 308.15 K): 0.07 | solubility (mole fraction) (in acetic acid, 313.15 K): 0.077 | solubility (mole fraction) (in acetic acid, 318.15 K): 0.085 | solubility (mole fraction) (in acetic acid, 323.15 K): 0.095 | solubility (mole fraction) (in acetic acid, 328.15 K): 0.103 | solubility (mole fraction) (in acetic acid, 333.15 K): 0.113 | solubility (mole fraction) (in methanol, 283.15 K): 0.02 | solubility (mole fraction) (in methanol, 288.15 K): 0.021 | solubility (mole fraction) (in methanol, 293.15 K): 0.023 | solubility (mole fraction) (in methanol, 298.15 K): 0.027 | solubility (mole fraction) (in methanol, 303.15 K): 0.029 | solubility (mole fraction) (in methanol, 308.15 K): 0.033 | solubility (mole fraction) (in methanol, 313.15 K): 0.038 | solubility (mole fraction) (in methanol, 318.15 K): 0.041 | solubility (mole fraction) (in methanol, 323.15 K): 0.047 | solubility (mole fraction) (in methanol, 328.15 K): 0.054 | solubility (mole fraction) (in methanol, 333.15 K): 0.061
